Legend:
Format in all cases: binding
Conditions in all cases: Compound Concentration 10 µM
panel of 442 kinases [1] = molecular target: T1, panel of 442 kinases (Homo sapiens, UniProt O00750)
T1 construct: purchased KINOMEscan
From the text: (§1) We assessed the selectivity of members of this scaffold using the KINOMEscan methodology across a near comprehensive panel of 442 kinases [[18,27]].

panel of 442 kinases [2] = molecular target: T2, panel of 442 kinases (Homo sapiens, UniProt P27448)
T2 construct: purchased KINOMEscan
From the text: as §1

panel of 442 kinases [3] = molecular target: T3, panel of 442 kinases (Homo sapiens, UniProt Q6P3R8)
T3 construct: purchased KINOMEscan
T3 sequence (Q6P3R8 1-708): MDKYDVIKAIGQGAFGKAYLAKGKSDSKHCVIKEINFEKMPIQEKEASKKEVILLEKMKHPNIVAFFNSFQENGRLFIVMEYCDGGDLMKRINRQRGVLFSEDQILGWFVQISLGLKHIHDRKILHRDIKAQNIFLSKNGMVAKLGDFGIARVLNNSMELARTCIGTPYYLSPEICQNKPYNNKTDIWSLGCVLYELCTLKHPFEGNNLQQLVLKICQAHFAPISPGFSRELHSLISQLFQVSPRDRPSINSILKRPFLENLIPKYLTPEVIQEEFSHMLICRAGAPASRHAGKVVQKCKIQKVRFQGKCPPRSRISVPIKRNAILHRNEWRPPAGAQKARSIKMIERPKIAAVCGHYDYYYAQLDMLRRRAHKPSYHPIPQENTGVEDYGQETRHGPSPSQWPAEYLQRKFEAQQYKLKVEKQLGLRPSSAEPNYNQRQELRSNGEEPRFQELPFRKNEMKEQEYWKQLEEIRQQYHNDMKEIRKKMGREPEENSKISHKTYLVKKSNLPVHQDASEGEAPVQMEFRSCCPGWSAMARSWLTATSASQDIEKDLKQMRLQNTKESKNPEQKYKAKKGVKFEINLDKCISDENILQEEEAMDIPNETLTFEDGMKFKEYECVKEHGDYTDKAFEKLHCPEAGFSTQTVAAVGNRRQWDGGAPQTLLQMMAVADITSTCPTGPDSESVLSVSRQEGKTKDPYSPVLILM
From the text: as §1

T2 sequence (P27448 whole entry): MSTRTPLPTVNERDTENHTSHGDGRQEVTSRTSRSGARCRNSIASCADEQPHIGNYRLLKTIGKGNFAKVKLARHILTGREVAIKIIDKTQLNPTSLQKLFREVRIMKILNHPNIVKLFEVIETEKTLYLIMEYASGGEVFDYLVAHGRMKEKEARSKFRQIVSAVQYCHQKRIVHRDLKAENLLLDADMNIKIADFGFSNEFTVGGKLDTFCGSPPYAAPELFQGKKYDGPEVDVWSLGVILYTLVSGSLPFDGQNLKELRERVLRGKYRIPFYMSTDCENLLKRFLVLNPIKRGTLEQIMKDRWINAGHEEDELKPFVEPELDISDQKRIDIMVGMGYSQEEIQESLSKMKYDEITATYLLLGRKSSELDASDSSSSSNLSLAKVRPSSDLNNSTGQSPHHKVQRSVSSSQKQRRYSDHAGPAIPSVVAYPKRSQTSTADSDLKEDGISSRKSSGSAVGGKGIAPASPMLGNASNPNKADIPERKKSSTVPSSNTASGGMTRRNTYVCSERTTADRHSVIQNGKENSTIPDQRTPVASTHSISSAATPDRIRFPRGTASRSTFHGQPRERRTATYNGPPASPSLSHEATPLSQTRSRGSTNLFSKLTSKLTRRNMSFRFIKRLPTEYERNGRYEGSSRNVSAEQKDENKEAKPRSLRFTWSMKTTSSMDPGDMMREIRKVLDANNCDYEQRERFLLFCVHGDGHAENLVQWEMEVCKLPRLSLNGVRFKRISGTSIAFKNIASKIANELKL
T1 sequence (O00750 whole entry): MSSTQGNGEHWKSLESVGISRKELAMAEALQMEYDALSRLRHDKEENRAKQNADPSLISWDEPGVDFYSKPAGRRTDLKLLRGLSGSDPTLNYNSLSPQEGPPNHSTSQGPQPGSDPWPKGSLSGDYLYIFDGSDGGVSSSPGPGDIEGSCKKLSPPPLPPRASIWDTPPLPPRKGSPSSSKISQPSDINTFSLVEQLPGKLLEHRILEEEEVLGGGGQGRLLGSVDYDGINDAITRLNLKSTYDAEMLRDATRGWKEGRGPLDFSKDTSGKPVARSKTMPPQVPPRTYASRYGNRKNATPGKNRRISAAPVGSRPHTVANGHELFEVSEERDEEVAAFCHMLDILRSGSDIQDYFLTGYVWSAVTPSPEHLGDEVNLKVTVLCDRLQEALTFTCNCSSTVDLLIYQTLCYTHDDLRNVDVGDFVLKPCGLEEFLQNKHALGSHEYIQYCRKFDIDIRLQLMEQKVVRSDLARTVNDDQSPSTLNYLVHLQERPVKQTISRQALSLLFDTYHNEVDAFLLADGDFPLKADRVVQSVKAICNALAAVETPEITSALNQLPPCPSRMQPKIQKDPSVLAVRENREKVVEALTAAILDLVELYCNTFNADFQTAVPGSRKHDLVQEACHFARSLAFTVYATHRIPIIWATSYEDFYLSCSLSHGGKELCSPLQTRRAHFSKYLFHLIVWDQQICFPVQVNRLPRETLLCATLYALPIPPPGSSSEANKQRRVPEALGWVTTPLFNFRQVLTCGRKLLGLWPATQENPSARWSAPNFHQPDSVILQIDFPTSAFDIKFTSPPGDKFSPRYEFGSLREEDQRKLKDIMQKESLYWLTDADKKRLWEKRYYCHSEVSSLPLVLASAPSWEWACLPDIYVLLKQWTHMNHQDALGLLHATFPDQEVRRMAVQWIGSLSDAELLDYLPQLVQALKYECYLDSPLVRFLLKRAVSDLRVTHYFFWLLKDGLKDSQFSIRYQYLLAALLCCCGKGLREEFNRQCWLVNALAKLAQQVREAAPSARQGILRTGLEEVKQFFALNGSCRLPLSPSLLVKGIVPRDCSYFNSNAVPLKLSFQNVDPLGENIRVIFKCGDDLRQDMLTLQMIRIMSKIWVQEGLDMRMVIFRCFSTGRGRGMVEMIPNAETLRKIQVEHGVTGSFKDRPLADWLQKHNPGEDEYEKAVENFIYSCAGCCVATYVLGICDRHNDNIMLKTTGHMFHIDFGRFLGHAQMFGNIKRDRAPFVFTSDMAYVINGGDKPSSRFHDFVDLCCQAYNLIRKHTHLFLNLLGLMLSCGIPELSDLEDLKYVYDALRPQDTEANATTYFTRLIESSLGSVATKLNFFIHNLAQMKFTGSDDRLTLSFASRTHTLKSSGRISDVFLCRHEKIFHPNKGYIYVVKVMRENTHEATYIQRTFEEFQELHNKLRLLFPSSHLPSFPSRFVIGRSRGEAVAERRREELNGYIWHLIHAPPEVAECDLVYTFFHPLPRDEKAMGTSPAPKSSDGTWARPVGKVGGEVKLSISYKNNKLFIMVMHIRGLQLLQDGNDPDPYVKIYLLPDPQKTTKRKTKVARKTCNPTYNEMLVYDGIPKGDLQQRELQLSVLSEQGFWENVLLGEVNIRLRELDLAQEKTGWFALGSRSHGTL

SMILES	KINOMEscan: PIK3C2B (panel of 442 kinases [1])	KINOMEscan: MARK3 (panel of 442 kinases [2])	KINOMEscan: NEK5 (panel of 442 kinases [3])
COc1cc(C(=O)N2CCC(N3CCN(C)CC3)CC2)ccc1Nc1ncc2c(n1)N(C1CCCC1)c1ccccc1C(=O)N2C [Compound 25, 11-cyclopentyl-2-((2-methoxy-4-(4-(4-methylpiperazin-1-yl)piperidine-1-carbonyl)phenyl)amino)-5-methyl-5H-benzo[e]pyrimido[5,4-b][1,4]diazepin-6(11H)-one]	100	100	100
CCOc1cc(C(=O)N2CCC(N3CCN(C)CC3)CC2)ccc1Nc1ncc2c(n1)N(C1CCCC1)c1ccccc1C(=O)N2C [Compound 26]	100	100	100
COc1cc(C(=O)N2CCC(N3CCN(C)CC3)CC2)ccc1Nc1ncc2c(n1)N1CCc3cccc(c31)C(=O)N2C [Compound 24]			57
COc1cc(C(=O)N2CCC(N3CCN(C)CC3)CC2)ccc1Nc1ncc2c(n1)N(C)c1ccccc1C(=O)N2C [15 (LRRK2-IN-1)]	100	98	100

From PMC3914206
